The record followed here is US7932031B2, “Methods for determining sensitivity to microtubule-stabilizing agents comprising ixabepilone by measuring the level of estrogen receptor 1” (Bristol-Myers Squibb Company, priority 2004, dated 2011).

The subject of the assay is invasive stage IIA-IIIB breast adenocarcinoma. Put plainly: CA163-080 exploratory genomic phase II study, ixabepilone as neoadjuvant treatment, pathologic complete response (Sataloff classification). The note with it: breast cancer patients, 40 mg/m^2 3-hour infusion on Day 1, up to four 21-day cycles. Type of assay: in vivo, human. On the procedure:
CA163-080 is an exploratory genomic phase II study that was conducted in breast cancer patients who received ixabepilone as a neoadjuvant treatment. The primary objective of this study was to identify predictive markers of response to ixabepilone through gene expression profiling of pre-treatment breast cancer biopsies. Patients with invasive stage IIA-IIIB breast adenocarcinoma (tumor size≧3 cm diameter) received 40 mg/m^2 ixabepilone as a 3-hour infusion on Day 1 for up to four 21-day cycles, followed by surgery within 3-4 weeks of completion of chemotherapy. A total of 164 patients were enrolled in this study. Biopsies for gene expression analysis were obtained both pre- and post-treatment. […]
Pathological response was assessed using the Sataloff classification system (D. Sataloff et al., J. Am. Coll. Surg., 180(3):297-306 (1995)) and used as an end point for the pharmacogenomic analysis. The pathologic response was evaluated in the primary tumor site at the end of treatment and prior to surgery by assessing histologic changes compared with baseline as following: At the primary tumor site, cellular modifications were evaluated in both the infiltrating tumoral component and in the possible ductal component, to determine viable residual infiltrating component (% of total tumoral mass); residual ductal component (% of total tumoral mass); the mitotic index. […]

As to `C/C(=C\c1csc(C)n1)[C@@H]1C[C@@H]2O[C@]2(C)CCC[C@H](C)[C@H](O)[C@@H](C)C(=O)C(C)(C)[C@@H](O)CC(=O)N1` [ixabepilone], the pCR response rate runs as follows: (the other sites (excluding Russian sites 16, 24 and 25)) 19.8%; (tumors from the three Russian sites (16, 24 and 25)) 17.2%.
